Measurements from BindingDB's records for patent US20240002388 (Hutchison Medipharma, 2024).

Target: T1, Receptor-interacting serine/threonine-protein kinase 1 (Homo sapiens, UniProt Q13546)
T1 sequence (Q13546 whole entry): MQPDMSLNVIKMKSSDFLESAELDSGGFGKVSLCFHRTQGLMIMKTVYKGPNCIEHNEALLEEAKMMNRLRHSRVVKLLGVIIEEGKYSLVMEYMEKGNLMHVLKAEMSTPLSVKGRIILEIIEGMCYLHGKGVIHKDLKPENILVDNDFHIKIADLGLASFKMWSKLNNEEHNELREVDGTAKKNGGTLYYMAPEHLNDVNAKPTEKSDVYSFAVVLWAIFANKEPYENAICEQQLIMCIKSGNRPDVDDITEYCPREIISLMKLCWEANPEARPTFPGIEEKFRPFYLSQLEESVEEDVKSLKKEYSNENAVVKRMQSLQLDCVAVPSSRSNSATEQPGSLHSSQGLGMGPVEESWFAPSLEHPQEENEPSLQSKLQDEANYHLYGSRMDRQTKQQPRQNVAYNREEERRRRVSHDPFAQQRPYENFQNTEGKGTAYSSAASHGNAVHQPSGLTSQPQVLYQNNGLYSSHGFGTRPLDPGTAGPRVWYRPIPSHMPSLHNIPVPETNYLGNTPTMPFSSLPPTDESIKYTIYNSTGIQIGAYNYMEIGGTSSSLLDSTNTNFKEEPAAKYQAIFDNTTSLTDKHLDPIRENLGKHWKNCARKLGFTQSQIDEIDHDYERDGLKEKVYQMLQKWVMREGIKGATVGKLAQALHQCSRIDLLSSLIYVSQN
Assay: RIPK1 Kinase Activity Assay
Method: ADP-Glo Kinase kit can be used to measure ADP level in kinase activity assay so as to distinguish the inhibitory effects of different compounds on RIPK1 kinase activity. The ADP-Glo assay was usually divided into three steps. Firstly, the kinase converted ATP to ADP and phosphorylated the substrate at the same time; secondly, ATP digestion reagent was added to degrade all ATP in the reaction system; finally, a detection reagent was added to reduce ADP to ATP, and energy from ATP was transferred to […] which thus emitting a chemical luminescence that can be detected. Assay procedure can refer to manufacture's technical manual.(2) Reagent Preparation:1.33× kinase buffer: 5× kinase buffer stock (250 mM of NaCl, 150 mM of MgCl2, 2.5 mg/ml BSA (bovine serum albumin), 0.1% CHAPS (3-[(3-cholamidopropyl)-dimethyl-ammonio]-1-propane sulfonate), and 5 mM of dithiothreitol) was diluted with water to 1.33× kinase buffer;RIPK1 enzyme solution: the kinase was dissolved in 1.33× kinase buffer to make 40 nM as the final working concentration;ATP solution: 10 mM ATP stock solution in water was dissolved in 1.33× kinase buffer to make 10 μM as the final working concentration;4× compound preparation: the compound was diluted in a 3-fold gradient, and finally 4% DMSO aqueous solution containing different concentrations of the compound was obtained. […]

- IC50: 18 nM
Compound: CC(C)n1cncc(-c2ccc(C3(NC(=O)c4nnc(Cc5ccccc5)[nH]4)CC3)cc2)c1=O [US20240002388, Compound 14]
